One compound from ChEMBL document CHEMBL1649270, “ST-246 inhibits in vivo poxvirus dissemination, virus shedding, and systemic disease manifestation” (2009) can be followed below.

Molecules are shown by their SMILES. Active and inactive are the calls of the source. The calls are words filed in the database; no cut-off is given here.

Assay [1] deals with Vaccinia virus WR. As to the kind of experiment: Antiviral activity against Vaccinia virus WR ATCC VR-1354 infected through percutaneous route in BALB/c mouse assessed as inhibition of virus dissemination in blood at 100 mg/kg, po qd for 1 day by RT-PCR analysis. It is filed as functional, organism-based. Also on record: dose 100 mg/kg.
Assay [2] concerns Vaccinia virus WR. In words: Antiviral activity against Vaccinia virus WR ATCC VR-1354 infected through intravenous route in BALB/c mouse assessed as reduction of viral load in liver at 100 mg/kg, po qd measured after 3 days postinfection by RT-PCR analysis relative to control. It is filed as functional.
For assay [3], the system named is Vaccinia virus WR. As to the kind of experiment: Antiviral activity against Vaccinia virus WR ATCC VR-1354 infected through intraperitoneal route in BALB/c mouse assessed as protection against virus-induced conjunctivitis in mouse eyes at 100 mg/kg, po qd measured after 6 days postinfection. Also on record: dose 100 mg/kg. It is filed as functional, organism-based.

For assay [4], the system named is Vaccinia virus WR. As to the kind of experiment: Antiviral activity against Vaccinia virus WR ATCC VR-1354 infected through dermal scarification route in BALB/c mouse assessed as reduction of viral load in brain at 100 mg/kg, po qd measured after 14 days postinfection by RT-PCR analysis relative to control. Also noted: dose 100 mg/kg. The format is functional, organism-based.

Assay [5] deals with Vaccinia virus WR. In words: Antiviral activity against Vaccinia virus WR ATCC VR-1354 infected through intravenous route in BALB/c mouse assessed as reduction of viral load in lung at 100 mg/kg, po qd measured after 14 days postinfection by RT-PCR analysis relative to control. Also on record: dose 100 mg/kg. It is filed as functional, organism-based.
For assay [6], the system named is Vaccinia virus WR. As to the kind of experiment: Antiviral activity against Vaccinia virus WR ATCC VR-1354 infected through dermal scarification route in BALB/c mouse assessed as protection against virus-induced conjunctivitis in mouse eyes at 100 mg/kg, po qd measured after 6 days postinfection. It is filed as functional, organism-based. Also noted: dose 100 mg/kg.

Assay [7] has as its system Vaccinia virus WR. In words: Antiviral activity against Vaccinia virus WR ATCC VR-1354 infected through percutaneous route in BALB/c mouse assessed as protection against virus-induced death at 100 mg/kg, po qd for 5 to 14 days. It is filed as functional, organism-based. Also noted: dose 100 mg/kg.
The subject of assay [8] is Vaccinia virus WR. As to the kind of experiment: Antiviral activity against Vaccinia virus WR ATCC VR-1354 infected through percutaneous route in BALB/c mouse assessed as protection against weight loss at 100 mg/kg, po qd for 1 to 3 days measured on day 8. Also noted: dose 100 mg/kg. The format is functional, organism-based.
For assay [9], the system named is Vaccinia virus WR. In words: Antiviral activity against Vaccinia virus WR ATCC VR-1354 infected through percutaneous route in BALB/c mouse assessed as reduction of viral load in lungs at 100 mg/kg, po qd measured after 5 days postinfection by RT-PCR analysis relative to control. The format is functional.

Take `O=C(NN1C(=O)[C@@H]2[C@@H]3C=C[C@@H]([C@H]4C[C@@H]34)[C@@H]2C1=O)c1ccc(C(F)(F)F)cc1` [TECOVIRIMAT]: the outcome in the assay with Vaccinia virus WR [1] and in the assay with Vaccinia virus WR [8] was inactive. Further, the “fold change (FC)” value amounted to 8 in the assay with Vaccinia virus WR [2] and 3.5 in the assay with Vaccinia virus WR [9]. Moreover, the result in the assay with Vaccinia virus WR [3], with Vaccinia virus WR [4], in the assay with Vaccinia virus WR [5], in the assay with Vaccinia virus WR [6] and in the assay on Vaccinia virus WR [7] was Active.
